Columns and labels:
Type in all cases: cell-based, human
BXPC3 cells = assay: MTT assay of BXPC3 cultures, single 50 μM dose; set-up: MTT assay result, run 1 / MTT assay result, run 2 / MTT assay result, run 3 / MTT assay result, run 4 / MTT assay result, run 5 / MTT assay result, run 6 / MTT assay result, run 7 / MTT assay result, av (average) / MTT assay result, av-blank / MTT assay result, av: unit not given here; details: BXPC3, 50 μM; for MTT assay result, av-blank: average minus blank; for MTT assay result, av (average) / MTT assay result, av: average of 7 runs
Experimental: BXPC3 cells were cultured in complete […] media containing 10% fetal bovine serum (FBS) and 1% penicillin-streptomycin, and 1% L-glutamine. BxPc-3 pancreatic cancer cells were cultured in complete RPMI media containing 10% fetal bovine serum (FBS), and 1% penicillin-streptomycin, 1% HEPES buffer, 1% sodium pyruvate and 1% L-glutamine HPDE6-C7 cells were cultured in serum-free keratinocyte SFM media. All cells were maintained at 37° C. in a humidified incubator with 5% CO2. The cells were treated with a single 50 μM dose of vehicle (vehicle only, may be a solvent), T3 alpha (alpha tocotrienol), T3 beta (beta tocotrienol), T3 gamma (gamma tocotrienol), T3 delta (delta tocotrienol), T alpha (alpha tocopherol), T beta (beta tocopherol), TS (tocopherol succinate), GG (geranylgeraniol), SA (succinic acid). A control (no treatment) culture was grown alongside the treatments for comparison. Cell viability was measured using MTT assay at preselect times of 48 or 120 hours after treatment.

MiaPaCa-2 cells = assay: MTT assay of MiaPaCa2 cultures, single 50 μM dose; set-up: rel amt (relative value set to the control): unit not given here; details: MiaPaCa2, 50 μM; for MTT assay result, av-blank: average minus blank; for MTT assay result, av: average of 7 runs
Experimental: MiaPaCa-2, BxPc-3, and HPDE6-C7 cells were cultured as described above, and treated with a single 50 μM dose of vehicle (ethanol extracted olive oil), T3 alpha (alpha tocotrienol), T3 beta (beta tocotrienol), T3 gamma (gamma tocotrienol), T3 delta (delta tocotrienol), T alpha (alpha tocopherol), T beta (beta tocopherol), TS (tocopherol succinate), GG (geranylgeraniol), SA (succinic acid). A control culture (vehicle only with no treatment) was grown alongside the treatments for comparison. Cell viability was measured using MTT assay at preselect times of 48 or 120 hours after treatment.

[1] = tested on: SW1990 pancreatic cancer cells; assay: MTS assay of SW1990 cultures, single 50 μM dose; details: SW1990, 50 μM
Experimental: SW1990 pancreatic cancer cells […] were cultured in complete DMEM media containing 10% fetal bovine serum (FBS) and 1% penicillin-streptomycin, and 1% L-glutamine. BxPc-3 pancreatic cancer cells were cultured in complete RPMI media containing 10% fetal bovine serum (FBS), and 1% penicillin-streptomycin, 1% HEPES buffer, 1% sodium pyruvate and 1% L-glutamine. HPDE6-C7 cells were cultured in serum-free keratinocyte SFM media. All cells were maintained at 37° C. in a humidified incubator with 5% CO2. The cells were treated with a single 50 μM dose of vehicle (ethanol extracted olive oil), T3 alpha (alpha tocotrienol), T3 beta (beta tocotrienol), T3 gamma (gamma tocotrienol), T3 delta (delta tocotrienol), T alpha (alpha tocopherol), T beta (beta tocopherol), TS (tocopherol succinate), GG (geranylgeraniol), SA (succinic acid). A control culture (i.e., only vehicle with no treatment) was grown alongside the treatments for comparison. Cell viability was measured using MTS assay at preselect times of 24, 48, or 72 hours after treatment.

SMILES: O=C(O)CCC(=O)O [SA, succinic acid]
- rel amt (relative value set to the control) (BXPC3 cells; 48 hours): 95
- MTT assay result, av-blank (BXPC3 cells; 48 hours): 0.218
- MTT assay result, av (average) (BXPC3 cells; 48 hours): 0.267
- MTT assay result, run 1 (BXPC3 cells; 48 hours): 0.273
- MTT assay result, run 2 (BXPC3 cells; 48 hours): 0.28
- MTT assay result, run 3 (BXPC3 cells; 48 hours): 0.271
- MTT assay result, run 4 (BXPC3 cells; 48 hours): 0.271
- MTT assay result, run 5 (BXPC3 cells; 48 hours): 0.254
- MTT assay result, run 6 (BXPC3 cells; 48 hours): 0.263
- MTT assay result, run 7 (BXPC3 cells; 48 hours): 0.255
- rel amt (relative value set to the control) (BXPC3 cells; 120 hours (5 days)): 74
- MTT assay result, av-blank (BXPC3 cells; 120 hours (5 days)): 0.428
- MTT assay result, av (BXPC3 cells; 120 hours (5 days)): 0.483
- MTT assay result, run 1 (BXPC3 cells; 120 hours (5 days)): 0.456
- MTT assay result, run 2 (BXPC3 cells; 120 hours (5 days)): 0.471
- MTT assay result, run 3 (BXPC3 cells; 120 hours (5 days)): 0.497
- MTT assay result, run 4 (BXPC3 cells; 120 hours (5 days)): 0.487
- MTT assay result, run 5 (BXPC3 cells; 120 hours (5 days)): 0.493
- MTT assay result, run 6 (BXPC3 cells; 120 hours (5 days)): 0.48
- MTT assay result, run 7 (BXPC3 cells; 120 hours (5 days)): 0.494
- rel amt (relative value set to the control) (MiaPaCa-2 cells; 48 hours): 74
- MTT assay result, av-blank (MiaPaCa-2 cells; 48 hours): 0.228
- MTT assay result, av (MiaPaCa-2 cells; 48 hours): 0.274
- MTT assay result, run 1 (MiaPaCa-2 cells; 48 hours): 0.276
- MTT assay result, run 2 (MiaPaCa-2 cells; 48 hours): 0.269
- MTT assay result, run 3 (MiaPaCa-2 cells; 48 hours): 0.268
- MTT assay result, run 4 (MiaPaCa-2 cells; 48 hours): 0.276
- MTT assay result, run 5 (MiaPaCa-2 cells; 48 hours): 0.3
- MTT assay result, run 6 (MiaPaCa-2 cells; 48 hours): 0.262
- MTT assay result, run 7 (MiaPaCa-2 cells; 48 hours): 0.266
- rel amt (relative value set to the control) (MiaPaCa-2 cells; 120 hours (5 days)): 80
- MTT assay result, av-blank (MiaPaCa-2 cells; 120 hours (5 days)): 1.443
- MTT assay result, av (MiaPaCa-2 cells; 120 hours (5 days)): 1.495
- MTT assay result, run 1 (MiaPaCa-2 cells; 120 hours (5 days)): 1.36
- MTT assay result, run 2 (MiaPaCa-2 cells; 120 hours (5 days)): 1.346
- MTT assay result, run 3 (MiaPaCa-2 cells; 120 hours (5 days)): 1.488
- MTT assay result, run 4 (MiaPaCa-2 cells; 120 hours (5 days)): 1.609
- MTT assay result, run 5 (MiaPaCa-2 cells; 120 hours (5 days)): 1.84
- MTT assay result, run 6 (MiaPaCa-2 cells; 120 hours (5 days)): 1.412
- MTT assay result, run 7 (MiaPaCa-2 cells; 120 hours (5 days)): 1.408
- rel amnt (relative value set to the control) ([1]; 24 hours): 109
- MTS assay result, run 1 ([1]; 24 hours): 0.146
- MTS assay result, run 2 ([1]; 24 hours): 0.154
- MTS assay result, run 3 ([1]; 24 hours): 0.15
- MTS assay result, run 4 ([1]; 24 hours): 0.152
- MTS assay result, run 5 ([1]; 24 hours): 0.172
- MTS assay result, run 6 ([1]; 24 hours): 0.165
- MTS assay result, run 7 ([1]; 24 hours): 0.179
- MTS assay result, run 8 ([1]; 24 hours): 0.165
- MTS assay result, run 9 ([1]; 24 hours): 0.160
- rel amnt (relative value set to the control) ([1]; 48 hours): 105
- MTS assay result, run 1 ([1]; 48 hours): 0.122
- MTS assay result, run 2 ([1]; 48 hours): 0.149
- MTS assay result, run 3 ([1]; 48 hours): 0.17
- MTS assay result, run 4 ([1]; 48 hours): 0.138
- MTS assay result, run 5 ([1]; 48 hours): 0.177
- MTS assay result, run 6 ([1]; 48 hours): 0.159
- MTS assay result, run 7 ([1]; 48 hours): 0.18
- MTS assay result, run 8 ([1]; 48 hours): 0.178
- MTS assay result, run 9 ([1]; 48 hours): 0.159
- rel amnt (relative value set to the control) ([1]; 72 hours): 113
- MTS assay result, run 1 ([1]; 72 hours): 0.596
- MTS assay result, run 2 ([1]; 72 hours): 0.547
- MTS assay result, run 3 ([1]; 72 hours): 0.57
- MTS assay result, run 4 ([1]; 72 hours): 0.515
- MTS assay result, run 5 ([1]; 72 hours): 0.544
- MTS assay result, run 6 ([1]; 72 hours): 0.44
- MTS assay result, run 7 ([1]; 72 hours): 0.4
- MTS assay result, run 8 ([1]; 72 hours): 0.427
- MTS assay result, run 9 ([1]; 72 hours): 0.504

SMILES: Cc1c(O)cc2c(c1C)O[C@](C)(CCC[C@H](C)CCC[C@H](C)CCCC(C)C)CC2 [T gamma]
- rel amt (relative value set to the control) (BXPC3 cells; 48 hours): 115
- MTT assay result, av-blank (BXPC3 cells; 48 hours): 0.262
- MTT assay result, av (average) (BXPC3 cells; 48 hours): 0.311
- MTT assay result, run 1 (BXPC3 cells; 48 hours): 0.32
- MTT assay result, run 2 (BXPC3 cells; 48 hours): 0.356
- MTT assay result, run 3 (BXPC3 cells; 48 hours): 0.335
- MTT assay result, run 4 (BXPC3 cells; 48 hours): 0.304
- MTT assay result, run 5 (BXPC3 cells; 48 hours): 0.277
- MTT assay result, run 6 (BXPC3 cells; 48 hours): 0.28
- MTT assay result, run 7 (BXPC3 cells; 48 hours): 0.306
- rel amt (relative value set to the control) (BXPC3 cells; 120 hours (5 days)): 103
- MTT assay result, av-blank (BXPC3 cells; 120 hours (5 days)): 0.595
- MTT assay result, av (BXPC3 cells; 120 hours (5 days)): 0.650
- MTT assay result, run 1 (BXPC3 cells; 120 hours (5 days)): 0.628
- MTT assay result, run 2 (BXPC3 cells; 120 hours (5 days)): 0.66
- MTT assay result, run 3 (BXPC3 cells; 120 hours (5 days)): 0.653
- MTT assay result, run 4 (BXPC3 cells; 120 hours (5 days)): 0.649
- MTT assay result, run 5 (BXPC3 cells; 120 hours (5 days)): 0.682
- MTT assay result, run 6 (BXPC3 cells; 120 hours (5 days)): 0.615
- MTT assay result, run 7 (BXPC3 cells; 120 hours (5 days)): 0.661
- rel amt (relative value set to the control) (MiaPaCa-2 cells; 48 hours): 94
- MTT assay result, av-blank (MiaPaCa-2 cells; 48 hours): 0.292
- MTT assay result, av (MiaPaCa-2 cells; 48 hours): 0.338
- MTT assay result, run 1 (MiaPaCa-2 cells; 48 hours): 0.35
- MTT assay result, run 2 (MiaPaCa-2 cells; 48 hours): 0.323
- MTT assay result, run 3 (MiaPaCa-2 cells; 48 hours): 0.312
- MTT assay result, run 4 (MiaPaCa-2 cells; 48 hours): 0.36
- MTT assay result, run 5 (MiaPaCa-2 cells; 48 hours): 0.348
- MTT assay result, run 6 (MiaPaCa-2 cells; 48 hours): 0.328
- MTT assay result, run 7 (MiaPaCa-2 cells; 48 hours): 0.348
- rel amt (relative value set to the control) (MiaPaCa-2 cells; 120 hours (5 days)): 87
- MTT assay result, av-blank (MiaPaCa-2 cells; 120 hours (5 days)): 1.566
- MTT assay result, av (MiaPaCa-2 cells; 120 hours (5 days)): 1.618
- MTT assay result, run 1 (MiaPaCa-2 cells; 120 hours (5 days)): 1.52
- MTT assay result, run 2 (MiaPaCa-2 cells; 120 hours (5 days)): 1.516
- MTT assay result, run 3 (MiaPaCa-2 cells; 120 hours (5 days)): 1.547
- MTT assay result, run 4 (MiaPaCa-2 cells; 120 hours (5 days)): 1.625
- MTT assay result, run 5 (MiaPaCa-2 cells; 120 hours (5 days)): 1.917
- MTT assay result, run 6 (MiaPaCa-2 cells; 120 hours (5 days)): 1.568
- MTT assay result, run 7 (MiaPaCa-2 cells; 120 hours (5 days)): 1.635
- rel amnt (relative value set to the control) ([1]; 24 hours): 116
- MTS assay result, run 1 ([1]; 24 hours): 0.175
- MTS assay result, run 2 ([1]; 24 hours): 0.165
- MTS assay result, run 3 ([1]; 24 hours): 0.167
- MTS assay result, run 4 ([1]; 24 hours): 0.154
- MTS assay result, run 5 ([1]; 24 hours): 0.198
- MTS assay result, run 6 ([1]; 24 hours): 0.168
- MTS assay result, run 7 ([1]; 24 hours): 0.178
- MTS assay result, run 8 ([1]; 24 hours): 0.16
- MTS assay result, run 9 ([1]; 24 hours): 0.171
- rel amnt (relative value set to the control) ([1]; 48 hours): 94
- MTS assay result, run 1 ([1]; 48 hours): 0.131
- MTS assay result, run 2 ([1]; 48 hours): 0.133
- MTS assay result, run 3 ([1]; 48 hours): 0.14
- MTS assay result, run 4 ([1]; 48 hours): 0.141
- MTS assay result, run 5 ([1]; 48 hours): 0.142
- MTS assay result, run 6 ([1]; 48 hours): 0.122
- MTS assay result, run 7 ([1]; 48 hours): 0.16
- MTS assay result, run 8 ([1]; 48 hours): 0.164
- MTS assay result, run 9 ([1]; 48 hours): 0.142
- rel amnt (relative value set to the control) ([1]; 72 hours): 108
- MTS assay result, run 1 ([1]; 72 hours): 0.5
- MTS assay result, run 2 ([1]; 72 hours): 0.497
- MTS assay result, run 3 ([1]; 72 hours): 0.46
- MTS assay result, run 4 ([1]; 72 hours): 0.505
- MTS assay result, run 5 ([1]; 72 hours): 0.515
- MTS assay result, run 6 ([1]; 72 hours): 0.469
- MTS assay result, run 7 ([1]; 72 hours): 0.43
- MTS assay result, run 8 ([1]; 72 hours): 0.451
- MTS assay result, run 9 ([1]; 72 hours): 0.478

Source: patent US8846653B2, “Delta-tocotrienol treatment and prevention of pancreatic cancer” (University of South Florida, priority 2006, dated 2014)
